The values that follow come from patent US9975861B2, “Dual inhibitor compounds for use in the treatment of neurodegenerative disorders and alzheimer's disease” (FONDAZIONE ISTITUTO ITALIANO DI TECNOLOGIA, priority 2014, dated 2018).

The subject of assay [1] is neurosphere cultures of primary rat neural stem cells. The assay can be described thus: Neurosphere cultures, immunocytochemistry for neural markers. The following applies: 10 μM during a week; compared to control (FIG. 3). It is filed as cell-based. An excerpt:
Neurosphere (NS) cultures were derived from the hippocampus of adult rats and induced to proliferate using established passaging methods to achieve optimal cellular expansion according to published protocols [Ferron, S. R.; Andreu-Agullo, C.; Mira, H.; Sanchez, P.; Marques-Torrejon, M. A.; Farinas, I. A combined ex/in vivo assay to detect effects of exogenously added factors in neural stem cells. Nature Protoc. 2007, 2, 849-859]. Rats were decapitated, brains removed, and the hippocampus dissected as described [Morales-Garcia, J. A.; Luna-Medina, R.; Alfaro-Cervello, C.; Cortes-Canteli, M.; Santos, A.; Garcia-Verdugo, J. M.; Perez-Castillo, A. Peroxisome proliferator-activated receptor gamma ligands regulate neural stem cell proliferation and differentiation in vitro and in vivo. Glia 2011, 59, 293-307]. Briefly, cells were seeded into 12-well dishes and cultured in DMEM/F12 (1:1, Invitrogen) containing 10 ng/mL epidermal growth factor (EGF, Peprotech, London, UK), 10 ng/mL fibroblast growth factor (FGF, Peprotech), and B27 medium (Gibco). After 3 days in culture, NS were cultivated in the presence or absence of the indicated compounds (10 μM) during a week. After that, NS from 10-day old cultures were plated for 72 hours onto 100 μg/mL poly-L-lysine-coated coverslips in the absence of exogenous growth factors.
Neurogenesis is a crucial property for new AD-modifying drugs, since it confers the potential to increase endogenous regeneration as a repair mechanism in the damaged brain, and reduce neuronal loss and degeneration. Considering that GSK-3β inhibition is reported to regulate and increase neurogenesis [Lange, C.; Mix, E.; Frahm, J.; Glass, A.; Muller, J.; Schmitt, O.; Schmole, A. C.; Klemm, K.; Ortinau, S.; Hubner, R.; Frech, M. J.; Wree, A.; Rolfs, A. Small molecule GSK-3 inhibitors increase neurogenesis of human neural progenitor cells. Neurosci. […]

The next assay deals with Human recombinant GSK-3β (Homo sapiens (Human), UniProt P49841). The assay can be described thus: Inhibition of GSK-3β (Kinase-Glo luminescent kinase assay). It is filed as biochemical. The following applies: 1 μM ATP, 25 μM substrate, 30 minutes at 30° C. As for the experimental part:
Human recombinant GSK-3β was purchased from Millipore (Millipore Iberica S.A.U.) The prephosphorylated polypeptide substrate was purchased from Millipore (Millipore Iberica SAU). Kinase-Glo Luminescent Kinase Assay was obtained from Promega (Promega Biotech Iberica, SL). ATP and all other reagents were from Sigma-Aldrich. Assay buffer contained 50 mM 4-(2-hydroxyethyl)-1-piperazineethanesulfonic acid (HEPES) (pH 7.5), 1 mM ethylenediaminetetraacetic acid (EDTA), 1 mM ethylene glycol tetraacetic acid (EGTA), and 15 mM magnesium acetate. The method developed by Baki was followed [Baki et al. Assay and Drug Development Technologies 2007, 5(1),75-83] to analyze the inhibition of GSK-3β. Kinase-Glo assays were performed in assay buffer using white 96-well plates. In a typical assay, 10 μL (10 μM) of test compound (dissolved in DMSO at 1 mM concentration and diluted in advance in assay buffer to the desired concentration) and 10 μL (20 ng) of enzyme were added to each well followed by 20 μL of assay buffer containing 25 μM substrate and 1 μM adenosine triphosphate (ATP). […] After a 30 minutes incubation at 30° C., the enzymatic reaction was stopped with 40 μL of Kinase-Glo reagent. Glow-type luminescence was recorded after 10 minutes using a Fluoroskan Ascent multimode reader.
The activity is proportional to the difference of the total and consumed ATP.
A general note: Kinase-Glo measures the ATP left after a reaction by luminescence.

For the next assay, the target named is β-secretase (BACE-1) (Homo sapiens (Human), UniProt P56817). The assay can be described thus: Inhibition of BACE-1 (fluorogenic APP-mimicking peptide substrate). Particulars: BACE-1 IC50 (μM), substrate 3 μM, 1 hour pre-incubation at rt, 15 minutes at 37° C.
Assay [2] deals with primary astrocytes and microglial cells. The assay can be described thus: Nitrites measurement (Griess reaction) in LPS-stimulated primary glial cells. The assay is classed as cell-based, rat. The following applies: compounds 10 μM for 1 hour, then LPS 10 μg/mL for 24 hours; astrocytes and microglia; potency compared with 6-amino triazinones A-C (FIGS. 2A, 2B). The procedure: Astrocytes were prepared from neonatal (P2) rat cerebral cortex, as previously described by Luna-Medina et al. [Luna-Medina, R.; Cortes-Canteli, M.; Alonso, M.; Santos, A.; Martinez, A.; Perez-Castillo, A. Regulation of inflammatory response in neural cells in vitro by thiadiazolidinones derivatives through peroxisome proliferator-activated receptor gamma activation. J. Biol. Chem. 2005, 280, 21453-21462].
Briefly, after removal of the meninges, the cerebral cortex was dissected, dissociated, and incubated with 0.25% trypsin/EDTA at 37° C. for 1 hour. After centrifugation, the pellet was washed 3 times with Hank's balanced salt solution (HBSS) (Gibco) and the cells were placed on noncoated flasks and maintained in HAMS/Dulbecco's modified eagle's medium (DMEM) (1:1) medium containing 10% of fetal bovine serum (FBS). After 15 days, the flasks were agitated on an orbital shaker for 4 hours at 240 rpm at 37° C., the supernatant was collected, centrifuged, and the cellular pellet containing the microglial cells resuspended in complete medium (HAMS/DMEM (1:1) containing 10% FBS) and seeded on uncoated 96-well plates. Cells were allowed to adhere for 2 hours, and the medium was removed to eliminate nonadherent oligodendrocytes. New fresh medium containing 10 ng/mL of granulocyte-macrophage colony-stimulating factor (GM-CSF) was added. The remaining astroglial cells adhered on the flasks were then trypsinized, collected, centrifugated, and plated onto 96-well plates with complete medium. The purity of cultures obtained by this procedure was >98% as determined by immunofluorescence with the OX42 (microglial marker) and the glial fibrillary acidic protein (GFAP, astroglial marker) antibodies.
The potential anti-inflammatory activity of the selected compounds was tested by evaluating the production of nitrites from primary cultured glial cells. Primary cultures of astrocytes and microglia were incubated with the selected compounds (10 μM) for 1 hour, and then cells were cultured for another 24 hours with a potent inflammatory agent, such as lipopolysaccharide (LPS) (10 μg/mL). LPS is able to induce nitrite production and accumulation in the culture medium, which was assayed by the standard Griess reaction. Supernatants were collected from the media and mixed with an equal volume of Griess reagent (Sigma). Samples were then incubated at rt for 15 minutes and absorbance read using a plate reader at 492/540 nm.
(In general: Griess reagent forms a coloured azo dye with nitrite.)

Human recombinant GSK-3β, sequence (P49841 whole entry): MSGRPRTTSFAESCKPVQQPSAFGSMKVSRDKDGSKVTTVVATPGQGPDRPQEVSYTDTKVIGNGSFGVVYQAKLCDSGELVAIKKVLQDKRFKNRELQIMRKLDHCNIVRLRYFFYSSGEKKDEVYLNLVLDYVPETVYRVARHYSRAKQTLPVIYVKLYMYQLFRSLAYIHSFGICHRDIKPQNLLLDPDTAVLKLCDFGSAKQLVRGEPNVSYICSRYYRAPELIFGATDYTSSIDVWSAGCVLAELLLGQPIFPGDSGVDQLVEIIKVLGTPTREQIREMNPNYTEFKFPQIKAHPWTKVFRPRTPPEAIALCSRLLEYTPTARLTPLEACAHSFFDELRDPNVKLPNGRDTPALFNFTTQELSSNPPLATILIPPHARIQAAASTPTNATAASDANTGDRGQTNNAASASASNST
β-secretase (BACE-1), sequence (P56817 46-501): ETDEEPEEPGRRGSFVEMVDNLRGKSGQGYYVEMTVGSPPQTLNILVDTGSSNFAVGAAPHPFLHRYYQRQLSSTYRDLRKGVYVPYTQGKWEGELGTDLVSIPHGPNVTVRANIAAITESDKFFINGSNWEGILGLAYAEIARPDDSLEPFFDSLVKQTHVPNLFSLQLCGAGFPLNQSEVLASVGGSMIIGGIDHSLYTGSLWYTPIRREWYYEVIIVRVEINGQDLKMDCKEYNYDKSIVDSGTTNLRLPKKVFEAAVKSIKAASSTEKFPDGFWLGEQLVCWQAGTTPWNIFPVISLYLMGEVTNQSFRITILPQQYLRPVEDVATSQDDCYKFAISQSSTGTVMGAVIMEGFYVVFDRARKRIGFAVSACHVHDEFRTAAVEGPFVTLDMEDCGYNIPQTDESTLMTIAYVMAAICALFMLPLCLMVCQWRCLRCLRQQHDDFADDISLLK
Method for β-secretase (BACE-1): β-secretase (BACE-1, Sigma-Aldrich) inhibition studies were performed by employing a peptide mimicking APP sequence as substrate (Methoxycoumarin-[sequence]dinitrophenyl, M-2420, Bachem, Germany). The following procedure was employed: 5 μL of test compounds (or DMSO, if preparing a control well) were pre-incubated with 175 μL of enzyme (in 20 mM sodium acetate containing 3-[(3-Cholamidopropyl)dimethylammonio]-1-propanesulfonate (CHAPS) 0.1% w/v) for 1 hour at rt. The substrate (3 μM, final concentration) was then added and left to react for 15 minutes at 37° C. The fluorescence signal was read at λem=405 nm (λexc=320 nm) using a Fluoroskan Ascent. […] The fluorescence intensities with and without inhibitor were compared and the percent inhibition due to the presence of test compounds was calculated. The background signal was measured in control wells containing all the reagents, except BACE-1 and subtracted. The % inhibition due to the presence of increasing test compound concentration was calculated by the following expression: 100−(IFi/IFo×100) where IFi and IFo are the fluorescence intensities obtained for BACE-1 in the presence and in the absence of inhibitor, respectively. […] The linear regression parameters were determined and the IC50 extrapolated (GraphPad Prism 4.0, GraphPad Software Inc.).

Regarding `NC1=NC(c2ccc(F)cc2)NC(=O)N1` (centres unmarked) [Compound A, reference compound], the “number of MAP-2 positive cells (mature neuronal marker)” value in assay [1] is given as “only a marginal increase”.

As to `CCNC1=NC(c2ccccc2C)NC(=O)N1` (centres unmarked) [Example 2, 6-(ethylamino)-4-(o-tolyl)-3,4-dihydro-1,3,5-triazin-2(1H)-one], the concentration for half-maximal inhibition (IC50) (in general, the concentration at which inhibition is half-maximal) at Human recombinant GSK-3β was found to be 40.7 ± 2.7 µM; against β-secretase (BACE-1) it was 50.3 ± 6.61 µM. `O=C1NC(Nc2ccccc2)=NC(c2ccc(F)cc2)N1` (centres unmarked) [Example 9, 4-(4-fluorophenyl)-6-(phenylamino)-3,4-dihydro-1,3,5-triazin-2(1H)-one]: the IC50 on Human recombinant GSK-3β came to 6.93 ± 0.14 µM. Besides, the “reduction of LPS-induced nitrite production” value in assay [2] was “higher potency”.
